Tested on: Langerhans cells (LCs)
Test: Migration of LCs through Matrigel in a two-compartment culture chamber (DNSB-sensitized)
Type: cell-based, human
Conditions: for LC migration index: 18 h at 37° C., control cells fixed at 1
Description: Suspensions of epidermal cells were obtained by enzyme treatment (0.05% trypsin, for 18 h at +4° C.) of fragments of normal human skin derived from plastic surgery.
D-sphingosine was diluted in ethanol so as to obtain a stock solution at 5×10^−3 M. The D-sphingosine was used at a concentration of 2.5 μM, the dilution carried out in RPMI containing 1% of bovine serum albumin (RPMI-BSA).
A peptide extract of lupin was used as MMP inhibitor. It is the peptide extract LU105 from Laboratoires Pharmascience.
The cells were pre-incubated at 37° C. for 60 min in the presence of LU105, before adding to the medium the hapten DNSB as sensitizing agent.
As sensitizing agent, DNSB (Sigma Aldrich) was used, the soluble form of DNCB (dinitrochlorobenzene), and was solubilized in RPMI-BSA and used at a concentration of 50 μM.
A two-compartment culture chamber system (Falcon, Becton Dickinson, France) was used. The upper compartment is separated from the lower compartment by a membrane with a porosity of 8 μm, onto which are deposited 50 μg/cm^2 of Matrigel. The membrane is then covered with proteins, forming a film equivalent to a basal membrane (laminin, collagen IV, nidogen, entactin, heparan sulfate proteoglycans). The cells taken up in the RPMI-BSA medium alone or in the presence of the various products are placed in the upper compartment. Normal human fibroblast culture supernatant is added to the lower compartment. After incubation for 18 h at 37° C., the number of living cells which have crossed the Matrigel and are in the lower compartment is counted under a microscope (the LCs are easily identifiable by their dendritic shape). Each assay is carried out in triplicate.

Structure (SMILES)	effect on the LC migration induced by DNSB (in words) (D-sphingosine 2.5 μM)	LC migration index (DNSB+D-sphingosine (2.5 μM))	LC migration index (cells sensitized with the hapten DNSB (50 μM) alone)	increase of LC migration compared to the normal unstimulated cells (control cells) (treatment with the hapten DNSB alone)
CCCCCCCCCCCCC/C=C/[C@@H](O)[C@@H](N)CO (relative stereo) [D-sphingosine, D-erythro-1,3-dihydroxy-2-amino-4-trans-octadecene]	significantly inhibits	1.15		
O=[N+]([O-])c1ccc(S(=O)(=O)O)c([N+](=O)[O-])c1 [DNSB, reference compound]			1.61	61%

Reference: patent US20080221017A1, “Pharmaceutical or cosmetic composition and use of a PKC inhibitor with an MMP inhibitor for inhibiting langerhans cell migration” (Laboratoires Expanscience, priority 2000, published 2008)
